Where a name gives a salt, the structure may show the parent alone.
Legend:
[1] = molecular target: T1, calpain-I isolated from human erythrocytes (Homo sapiens, UniProt P07384); assay: Calpain I kinetic fluorescence enzyme inhibition assay; assay type: biochemical; conditions: apparent Ki from IC50 by Cheng-Prussoff; average of 2 to 4 dose-effect plots
T1 construct: calpain-I—isolated from human erythrocytes; purchased Calbiochem 208713; host or cells: human erythrocytes (tissue isolate)
T1 sequence (P07384 1-714): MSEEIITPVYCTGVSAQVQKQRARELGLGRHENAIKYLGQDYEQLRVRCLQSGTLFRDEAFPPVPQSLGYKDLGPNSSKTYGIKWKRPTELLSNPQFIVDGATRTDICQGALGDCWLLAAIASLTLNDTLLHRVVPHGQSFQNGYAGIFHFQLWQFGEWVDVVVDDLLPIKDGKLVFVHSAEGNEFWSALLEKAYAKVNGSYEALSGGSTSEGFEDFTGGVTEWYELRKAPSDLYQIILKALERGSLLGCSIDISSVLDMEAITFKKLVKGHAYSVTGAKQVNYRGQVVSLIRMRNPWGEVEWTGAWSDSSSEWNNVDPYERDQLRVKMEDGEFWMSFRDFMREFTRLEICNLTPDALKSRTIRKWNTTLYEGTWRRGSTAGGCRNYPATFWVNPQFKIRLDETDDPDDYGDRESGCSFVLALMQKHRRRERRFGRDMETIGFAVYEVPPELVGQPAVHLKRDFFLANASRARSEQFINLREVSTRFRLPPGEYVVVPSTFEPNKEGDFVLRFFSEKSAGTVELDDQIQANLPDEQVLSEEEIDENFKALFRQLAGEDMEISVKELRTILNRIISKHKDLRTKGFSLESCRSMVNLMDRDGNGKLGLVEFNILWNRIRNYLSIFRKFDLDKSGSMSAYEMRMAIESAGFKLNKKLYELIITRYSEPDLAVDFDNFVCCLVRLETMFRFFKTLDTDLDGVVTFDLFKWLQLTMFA
T1 sequence (P04632 1-268 partner): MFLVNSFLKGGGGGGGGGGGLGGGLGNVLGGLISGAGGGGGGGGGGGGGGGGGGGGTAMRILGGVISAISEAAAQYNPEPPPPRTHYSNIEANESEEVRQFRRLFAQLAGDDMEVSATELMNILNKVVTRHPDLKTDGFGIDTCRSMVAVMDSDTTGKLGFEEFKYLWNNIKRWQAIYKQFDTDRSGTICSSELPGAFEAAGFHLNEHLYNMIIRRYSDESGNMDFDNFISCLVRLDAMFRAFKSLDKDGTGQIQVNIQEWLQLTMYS
Protocol: (§1) The following solutions and buffers were employed: • HBS (for 40 ml): 800 μl M HEPES; 2.16 ml 100 mM KCl; 4.8 ml 1M NaCl; 3.59 ml 5% glucose; 60 μl μM MgSO4; 400 μl 100 mM Na pyruvate, 28.19 ml water; pH 7.2-7.5. • lysis buffer (for 20 ml): 400 μl M Tris pH 8.2; 2.74 ml 1M NaCl; 520 μl 0.5M EDTA; 2 ml 10% triton X-100; 0.8 ml (=1:25) CompletePlus (1 tablet/2 ml H2O); 200 μl 100 mM Pefabloc; 13.34 ml water, pH 8.2. • TBST (10×) (for 1 l): 100 mM Tris (12.1 g); 1.5M NaCl (87 g); 1% Tween 20 (10 g), adjusted to pH 8. I Enzyme Inhibition In Vitro: • Testing for blockade of the corresponding enzymic activities was carried out by means of kinetic fluorescence assays (excitation 390 nm, emission 460 nm). • Apparent Ki values were calculated from the experimentally determined IC50 values by the Cheng-Prussoff relation assuming a reversible competitive enzyme inhibition. The Km values of the substrates used under the assay conditions indicated above were: 90 μM (Z-Phe-Arg-AMC, cathepsin B), 10 μM (Z-Gly-Pro-Arg-AMC, cathepsin K), 2 μM (Z-Phe-Arg-AMC, cathepsin L), and 30 μM (Z-Val-Val-Arg-AMC, cathepsin S). • The indicated Ki values are averages of the inhibition constants calculated on the basis of 2 to 4 independent dose-effect plots.
(§2) The following assays were used: • 1. Calpain I: • 20 nM calpain-I—isolated from human erythrocytes (Calbiochem #208713), 100 μM Suc-Leu-Tyr-AMC (Bachem #1-1355) as substrate in buffer with 62 mM imidazole, 0.3 mM CaCl2, 0.10% CHAPS, 0.05% BSA, 1 mM DTT at pH 7.3 and room temperature. • 2. Cathepsin B: • 0.25 nM cathepsin B—isolated from human liver (Calbiochem #219362), 100 μM Z-Phe-Arg-AMC (Bachem #I-1160) as substrate 50 mM MES, 2 mM EDTA, 0.05% Brij 35, 2.5 mM L-cysteine, pH 6.0, room temperature. • 3. Cathepsin K: • 3 nM cathepsin K—activated from recombinant human procathepsin K from E. coli (Calbiochem #342001), 10 μM Z-Gly-Pro-Arg-AMC (Biomol #P-142) as substrate in 50 mM MES, 2 mM EDTA, 0.05% Brij 35, 2.5 mM L-cysteine, pH 6.0, room temperature. • 4. Cathepsin L: • 1 nM cathepsin L—isolated from human liver (Calbiochem #219402), 2 μM Z-Phe-Arg-AMC (Bachem #1-1160) as substrate in 50 mM MES, 2 mM EDTA, 0.05% Brij 35, 2.5 mM L-cysteine, pH 6.0, room temperature. • 5. Cathepsin S: • 0.5 nM recombinant human cathepsin S from E. coli (Calbiochem #219343), 20 μM Z-Val-Val-Arg-AMC (Bachem #1-1540) as substrate in 50 mM MES, 2 mM EDTA, 0.05% Brij 35, 2.5 mM L-cysteine, pH 6.0, room temperature. • The results of the in vitro determination are indicated in Table 1. The following abbreviations are used in Table 1: • The “Calpain activity” column, ++ stands for a calpain Ki (Ki(calpain)) of ≦40 nM and + means: 40 nM<Ki(Calpain)≦100 nM. • The “Sel. cat. B” column indicates the Ki(cathepsin B)/Ki(calpain) ratio. In this connection, ++ means a Ki(cathepsin B)/Ki(calpain) ratio of ≧30 and + means 10≦Ki(cathepsin B)/Ki(calpain)<30. • The “Sel. cat. K” column indicates the Ki(cathepsin K)/Ki(calpain) ratio. In this connection, ++ means a Ki(cathepsin K)/Ki(calpain) ratio of ≧30 and + means 10≦Ki(cathepsin K)/Ki(calpain)<30. • The “Sel. cat. L” column indicates the Ki(cathepsin L)/Ki(calpain) ratio. In this connection, ++ means a Ki(cathepsin L)/Ki(calpain) ratio of ≧50 and + means 30≦Ki(cathepsin L)/Ki(calpain)<50. • The “Sel. cat. S” column indicates the Ki(cathepsin S)/Ki(calpain) ratio. In this connection, ++ means a Ki(cathepsin S)/Ki(calpain) ratio of ≧100 and + means 50≦Ki(cathepsin S)/Ki(calpain)<100.

[2] = molecular target: T2, recombinant human cathepsin S (Homo sapiens, UniProt P25774); assay: Cathepsin S kinetic fluorescence enzyme inhibition assay; assay type: biochemical; conditions: selectivity ratio versus calpain I
T2 construct: purchased Calbiochem 219343; host or cells: E. coli
T2 sequence (P25774 115-331): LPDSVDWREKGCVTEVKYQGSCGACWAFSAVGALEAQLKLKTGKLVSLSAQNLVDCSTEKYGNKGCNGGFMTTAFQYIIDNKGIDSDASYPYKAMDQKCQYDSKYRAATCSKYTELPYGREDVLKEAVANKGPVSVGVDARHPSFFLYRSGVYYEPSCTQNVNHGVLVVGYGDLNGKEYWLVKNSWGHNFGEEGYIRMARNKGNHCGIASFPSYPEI
Protocol: as §1, §2

Compound | Ki [1] | Sel cat. S (Ki(cathepsin S)/Ki(calpain) ratio) [2]
NC(=O)C(=O)C(Cc1ccccc1)NC(=O)c1cccnc1-n1cc(-c2ccccc2)cn1 (centres unmarked) [Example 4, N-(3-Amino-1-benzyl-2,3-dioxopropyl)-2-(4-phenyl-1H-pyrazol-1-yl)nicotinamide] | ≤ 40 nM | 
CCCCC(NC(=O)c1cccnc1-n1ccc(-c2ccccc2)n1)C(=O)C(N)=O (centres unmarked) [Example 6, N-{1-[Amino(oxo)acetyl]pentyl}-2-(3-phenyl-1H-pyrazol-1-yl)nicotinamide] | ≤ 40 nM | + (50≦Ki(cathepsin S)/Ki(calpain)<100)
CCCCC(NC(=O)c1cccnc1-n1cnc(-c2ccc(Cl)cc2)c1)C(=O)C(N)=O (centres unmarked) [Example 10, N-{1-[Amino(oxo)acetyl]pentyl}-2-[4-(4-chlorophenyl)-1H-imidazol-1-yl]nicotinamide] | ≤ 40 nM | 
CCCCC(NC(=O)c1cccnc1-n1cnc(-c2ccc(OC)cc2)c1)C(=O)C(N)=O (centres unmarked) [Example 12, N-{1-[Amino(oxo)acetyl]pentyl}-2-[4-(4-methoxyphenyl)-1H-imidazol-1-yl]nicotinamide] | ≤ 40 nM | 
NC(=O)C(=O)C(Cc1ccccc1)NC(=O)c1cccnc1-n1cnc(-c2ccc(N3CCOCC3)cc2)c1 (centres unmarked) [Example 14, N-(3-Amino-1-benzyl-2,3-dioxopropyl)-2-[4-(4-morpholin-4-ylphenyl)-1H-imidazol-1-yl]nicotinamide] | 40 to 100 nM | ++ (Ki(cathepsin S)/Ki(calpain) ratio of ≧100)
CCN(CC)c1ccc(-c2cn(-c3ncccc3C(=O)NC(Cc3ccccc3)C(=O)C(N)=O)cn2)cc1 (centres unmarked) [Example 16, N-(3-Amino-1-benzyl-2,3-dioxopropyl)-2-{4-[4-(diethylamino)phenyl]-1H-imidazol-1-yl}nicotinamide hydrochloride] | 40 to 100 nM | 
NC(=O)C(=O)C(Cc1ccccc1)NC(=O)c1cccnc1-n1cnc(-c2ccccc2Cl)c1 (centres unmarked) [Example 19, N-(3-Amino-1-benzyl-2,3-dioxopropyl)-2-[4-(2-chlorophenyl)-1H-imidazol-1-yl]nicotinamide hydrochloride] | ≤ 40 nM | 
CCCCC(NC(=O)c1cccnc1-n1cnc(-c2ccccc2Cl)c1)C(=O)C(N)=O (centres unmarked) [Example 20, N-{1-[Amino(oxo)acetyl]pentyl}-2-[4-(2-chlorophenyl)-1H-imidazol-1-yl]nicotinamide hydrochloride] | ≤ 40 nM | 
CCCCC(NC(=O)c1cccnc1-n1cnc(-c2cccc(Cl)c2)c1)C(=O)C(N)=O (centres unmarked) [Example 21, N-{1-[Amino(oxo)acetyl]pentyl}-2-[4-(3-chlorophenyl)-1H-imidazol-1-yl]nicotinamide] | ≤ 40 nM | 
NC(=O)C(=O)C(Cc1ccccc1)NC(=O)c1cccnc1-n1cnc(-c2cccc(Cl)c2)c1 (centres unmarked) [Example 22, N-(3-Amino-1-benzyl-2,3-dioxopropyl)-2-[4-(3-chlorophenyl)-1H-imidazol-1-yl]nicotinamide] | ≤ 40 nM | 
NC(=O)C(=O)C(Cc1ccccc1)NC(=O)c1cc(Cl)cnc1-n1cnc(-c2ccccc2)c1 (centres unmarked) [Example 23, N-(3-Amino-1-benzyl-2,3-dioxopropyl)-5-chloro-2-(4-phenyl-1H-imidazol-1-yl)nicotinamide hydrochloride] | ≤ 40 nM | 
CC(C)CC(NC(=O)c1cc(Cl)cnc1-n1cnc(-c2ccccc2)c1)C(=O)C(N)=O (centres unmarked) [Example 25, N-{1-[Amino(oxo)acetyl]-3-methylbutyl}-5-chloro-2-(4-phenyl-1H-imidazol-1-yl)nicotinamide] | ≤ 40 nM | 
NC(=O)C(=O)C(Cc1ccccc1)NC(=O)c1cccnc1-n1ccc(-c2ccncc2)n1 (centres unmarked) [Example 65, N-(3-Amino-1-benzyl-2,3-dioxopropyl)-2-(3-pyridin-4-yl-1H-pyrazol-1-yl)nicotinamide] |  | ++ (Ki(cathepsin S)/Ki(calpain) ratio of ≧100)
NC(=O)C(=O)C(Cc1ccccc1)NC(=O)c1cccnc1-n1ncc2ccccc21 (centres unmarked) [Example 77, N-(3-Amino-1-benzyl-2,3-dioxopropyl)-2-(1H-indazol-1-yl)nicotinamide] | ≤ 40 nM | 
O=C[C@H](Cc1ccccc1)NC(=O)c1cccnc1-n1ccc(-c2ccccc2)n1 [Example 105, N-[(1S)-1-Formyl-2-phenylethyl]-2-(3-phenyl-1H-pyrazol-1-yl)pyridine-3-carboxamide] | ≤ 40 nM | 
COc1ccc(CC(NC(=O)c2cccnc2-n2ccc(-c3cccc(C(F)(F)F)c3)n2)C(=O)C(N)=O)cc1 (centres unmarked) [Example 126, N-(3-Amino-1-{[4-(methyloxy)phenyl]methyl}-2,3-dioxopropyl)-2-{3-[3-(trifluoromethyl)phenyl]-1H-pyrazol-1-yl}pyridine-3-carboxamide] | ≤ 40 nM | 
NC(=O)C(=O)C(Cc1ccccc1)NC(=O)c1cccnc1-n1ccc(-c2ccc3ocnc3c2)n1 (centres unmarked) [Example 129, N-[3-Amino-2,3-dioxo-1-(phenylmethyl)propyl]-2-[3-(1,3-benzoxazol-5-yl)-1H-pyrazol-1-yl]pyridine-3-carboxamide] | 40 to 100 nM | 
CN(C)Cc1cn(-c2ncccc2C(=O)NC(Cc2ccccc2)C(=O)C(N)=O)nc1-c1cccc(C(F)(F)F)c1 (centres unmarked) [Example 176, N-[3-Amino-2,3-dioxo-1-(phenylmethyl)propyl]-2-{4-[(dimethylamino)methyl]-3-[3-(trifluoromethyl)phenyl]-1H-pyrazol-1-yl}pyridine-3-carboxamide] |  | ++ (Ki(cathepsin S)/Ki(calpain) ratio of ≧100)

From patent US7728012B2, “Carboxamide compounds and their use as calpain inhibitors” (Abbott GmbH & Co. KG, priority 2006, dated 2010)
